According to patent US11999770B2, “Peptides and nanoparticle formulations thereof” (University of Bradford, priority 2016, dated 2024):

Experiments:
MDA-MB-231 cells [1] = assay: Cytotoxicity / cell viability (MTT assay); format: cell-based, human; settings: for activity against the proliferation of MDA MB-231 triple negative breast cancer cells: dosed as nanoparticles
Experimental: Cytotoxicity of an optimised peptide NP formulation (F18) containing peptide of SEQ ID NO: 5 was measured by assessing cell viability (MTT assay). The MDA-MB-231 cells were seeded in 24-well plates (Nalgen Nunc International, Ochester, NY) at a density of 5×10^4 cells per well and incubated for 24 hours to allow for 60-70% confluency and sufficient adhesion. The cells were treated with different concentrations of the peptide-loaded NP, free peptide (SEQ ID NO: 5) and blank NP. After 24, 48, 72 and 96 hours, the treated cells were washed with 500 μl PBS, and 500 μl of 15% MTT dye solution in complete media added to each well. The plates were incubated at 37° C. and 5% CO2 for an additional 3 hours. The supernatant was then discarded, 500 μl DMSO added and the solution vigorously mixed. The optical density of each well was measured at 570 nm (reference wavelength 630 nm) in a microplate reader (Fluostar Omega, BMG Lab Tech GMBH, Germany). This experiment was performed in triplicate and repeated three times. Mean values±SD for each concentration was determined. Percentage cell viability was determined as the ratio of absorbance (570 nm) in treated cells relative to the absorbance in control cells (570 nm). The absorbance of the untreated cells was set at 100%. The IC50 was defined as the concentration of sample needed to reduce the signal by 50% relative to the control.

A549 lung cancer cells = assay: A549 lung cancer cell viability; format: cell-based, human; settings: dosed as nanoparticles
MDA-MB231 invasion = assay: MDA-MB231 invasion; format: cell-based, human; settings: loaded nanoparticles
[2] = Isoelectric point of the peptide; format: physicochemical
MDA-MB231 migration = assay: MDA-MB231 migration; format: cell-based, human; settings: loaded nanoparticles
[3] = target: T1, RanGDP-RCC1 protein-protein interaction (Homo sapiens, UniProt P18754); assay: Ran activation assay (MDA MB-231 cell lysate, RanBP1 agarose beads); format: biochemical
T1 construct: endogenous in cells; host or cells: MDA MB-231 cell lysate
T1 sequence (P18754 2-421 limits assumed): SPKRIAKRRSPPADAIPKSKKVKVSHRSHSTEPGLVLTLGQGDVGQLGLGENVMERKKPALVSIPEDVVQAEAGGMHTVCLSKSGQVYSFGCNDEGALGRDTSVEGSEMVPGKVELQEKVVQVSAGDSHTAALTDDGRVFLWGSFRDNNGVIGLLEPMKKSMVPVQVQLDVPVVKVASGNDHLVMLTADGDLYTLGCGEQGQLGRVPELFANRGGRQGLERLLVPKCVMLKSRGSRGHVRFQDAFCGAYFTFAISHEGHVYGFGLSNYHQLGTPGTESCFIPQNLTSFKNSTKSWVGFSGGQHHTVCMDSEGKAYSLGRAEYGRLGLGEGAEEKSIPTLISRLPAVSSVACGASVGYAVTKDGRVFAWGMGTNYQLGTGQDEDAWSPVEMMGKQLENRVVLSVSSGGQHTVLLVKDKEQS
Experimental: Lane 1 is positive control for activated Ran complex & Lane 2, MDA MB-231 cell lysate, Lane 3 MDA MB-231 cell lysate loaded with GDP and incubated (negative control) with RanBP1 Agarose beads. Lane 4, MDA MB-231 cell lysate loaded with GTPyS (positive control) incubated with RanBP1 Agarose beads. Lane 5, MDA MB231 cell lysate treated by N-Terminal peptide, Lane 6, MDA MB-231 cell lysate loaded with GD and treated with N-terminal peptide SEQ ID NO: 5, Lane 7, MDA MB231 cell lysate loaded with GTPyS and treated with N-terminal peptide SEQ ID NO: 5 incubated with RanBP1 Agarose beads. […] It can therefore be seen that the N-terminal peptide SEQ ID NO: 5 disturbs the interaction between Ran-RCC1 by direct binding to RCC1.
In this figure, Lane 1 is positive control (activated Ran protein); Lane 2, MDA MB-231 cell lysate; Lane 3 MDA MB-231 cell lysate loaded with GDP and incubated (negative control) with RanBP1 Agarose beads; Lane 4, MDA MB-231 cell lysate loaded with GTPyS (positive control) incubated with RanBP1 Agarose beads; Lane 5, MDA MB-231 cell lysate treated by peptide of SEQ ID 5; Lane 6, MDA MB-231 cell lysate loaded with GD and treated with peptide of SEQ ID 5; and Lane 7, MDA MB-231 cell lysate loaded with GTPyS and treated with peptide of SEQ ID 5 incubated with RanBP1 Agarose beads.

MDA-MB-231 cells [4] = assay: Cell cycle analysis (PI flow cytometry); format: cell-based, human
Experimental: To determine the effect of peptide (SEQ ID NO: 5)-loaded NP on cell growth, cultured cells were treated with the same doses of free peptide and peptide-loaded NP as used in the cell viability assay. After 24 and 48 hours of treatment, cells were suspended in PBS and fixed by addition of 70% ice-cold methanol. Cells were treated by adding RNase (1.0 μg ml^−1) to the samples and re-suspending in propidium iodide (PI) stain (5.0 μg ml^−1). PI fluorescence intensity was determined using flow cytometry through a FL-2A filter at 585 nm. Flow-cytometric data were analysed using Cyflogic (v.1.2.1) software. Quantification of apoptotic cells was determined by flow cytometry as the percentage of cells in the sub-G1 region (hypodiploidy) in cell cycle analysis as previously described [PLoS ONE, 6 (2011) e23640].

[5] = target: T2, RanGDP-RCC1 protein-protein interaction (Homo sapiens, UniProt P18754); assay: AlphaScreen assay; format: binding; settings: in the absence of GTP
T2 sequence (P18754 1-421): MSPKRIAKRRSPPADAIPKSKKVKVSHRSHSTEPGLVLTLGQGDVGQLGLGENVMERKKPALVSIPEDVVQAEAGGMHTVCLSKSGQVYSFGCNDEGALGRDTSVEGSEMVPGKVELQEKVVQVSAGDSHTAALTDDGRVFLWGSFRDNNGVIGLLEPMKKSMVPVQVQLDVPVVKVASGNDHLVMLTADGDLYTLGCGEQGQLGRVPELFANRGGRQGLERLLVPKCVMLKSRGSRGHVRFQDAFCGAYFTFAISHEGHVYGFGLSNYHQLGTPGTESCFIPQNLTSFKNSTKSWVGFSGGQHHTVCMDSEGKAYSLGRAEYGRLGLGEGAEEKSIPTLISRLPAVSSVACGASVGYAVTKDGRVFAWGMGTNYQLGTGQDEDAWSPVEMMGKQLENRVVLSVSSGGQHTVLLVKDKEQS
Text: The direct effect of the inhibitor of SEQ ID NO: 5 on the RanGDP-RCC1 interaction was also studied by AlphaScreen™ assay. This assay employs bead-based chemistry used to study biomolecular interactions in a microplate format, the acronym ALPHA stands for Amplified Luminescent Proximity Homogeneous Assay. In brief, the system uses two photosensitive bead types, a first donor bead that can absorb light from an external light source and a second acceptor bead that can first absorb energy from the donor bead if the beads are in close proximity and then in turn emit light. The Ran protein was attached to the donor bead and the RCC1 protein was attached to the acceptor bead. In the absence of peptide inhibitor the interaction of Ran and RCC1 hold the beads in close proximity and the emission from the acceptor bead is detectable.

| Sequence | activity against the proliferation of MDA MB-231 triple negative breast cancer cells (MDA-MB-231 cells [1]) | activity against the proliferation of A549 lung cancer cells (A549 lung cancer cells) | effect on MDA-MB231 invasion (MDA-MB231 invasion) | isoelectric point (pI) [2] | cytotoxic action (cell viability) (MDA-MB-231 cells [1]; 2, 4 and 8 μM, 24, 48, 72 and 96 hours) | effect on MDA-MB231 migration (MDA-MB231 migration) | effect on Ran-GDP/RCC1 interaction (activated Ran pull-down) [3] | growth rate of the cells (MDA-MB-231 cells [4]) | inhibition of complex formation [5] |
| --- | --- | --- | --- | --- | --- | --- | --- | --- | --- |
| CQYEHDLEVAQTTALP [SEQ ID NO: 7, Ran positions 196 to 210 with N-terminal Cys] | significant activity | significant activity | – | – | – | – | – | – | – |
| CAQGEPQVQFK [SEQ ID NO: 5] | significant activity | significant activity | inhibitory effect | around 6.0 | no significant cytotoxicity | inhibitory effect | disturbs the interaction between Ran-GDP and RCC1 | not affected | 45% |
| CVDIKDRKVKAKS [SEQ ID NO: 6, Ran positions 124 to 135 with N-terminal Cys] | significant activity | significant activity | – | – | – | – | – | – | – |
